For assay [1], the system named is prostate tumors of CTX Pten^pc−/− mice. Description: CXCR2 antagonist treatment of surgically castrated Pten^pc−/− mice. The class given is in vivo, mouse. How it is done:
All mice were maintained under specific pathogen-free conditions in the IRB facility and experiments were performed according to state guidelines and approved by the local ethics committee. Male C57BL/6 or FVB mice 6-8 weeks of age were purchased from Jackson Laboratories (Envigo), and acclimated for at least a week before use. C57BL/6 IL-23p19KO (IL23ko) mice were kindly provided by Prof. Federica Sallusto (IRB, Bellinzona). Pten^pc−/− mice were generated and genotyped as previously described. […] Mice were monitored postoperatively for recovery from anesthesia and checked daily for 2 days postoperatively. […] Tumor growth was monitored daily by measuring the tumor size with caliper. […]
Tumors were disaggregated and digested in collagenase D and DNAse for 30 minutes at 37° C. to obtain single-cell suspension. […] Data were analyzed using FlowJo software (TreeStar, Ashland, Oreg.).
(§1) RNA isolation (TRIzol, Qiagen) and retro-transcription with SuperScriptIII (Invitrogen, 11752-250) were performed according to the manufacturer's instructions. Quantitative PCR (qPCR) reactions (Bio-Rad) were performed using KAPA SYBR FAST qPCR green (KK4605; Applied Biosystems) and the specific primers reported below. […]

Assay [2] concerns MyC-CaP cells. Description: CXCR2 antagonist treatment of castrated MyC-CaP allograft mice. It counts as in vivo, mouse. How it is done:
(§2) All mice were maintained under specific pathogen-free conditions in the IRB facility and experiments were performed according to state guidelines and approved by the local ethics committee. Male C57BL/6 or FVB mice 6-8 weeks of age were purchased from Jackson Laboratories (Envigo), and acclimated for at least a week before use. C57BL/6 IL-23p19KO (IL23ko) mice were kindly provided by Prof. Federica Sallusto (IRB, Bellinzona). Pten^pc−/− mice were generated and genotyped as previously described. Female Pten^loxP/loxP mice were crossed with male PB-Cre4 transgenic mice and genotyped for Cre using following primers: primer 1 (5′-[…]-3′) and primer 2 (5′-[…]-3′) for PTEN^loxP/loxP; primer 1 (5′ […] 3′) and primer 2 (5′CAGCCACCAGCTTGCATGA 3′) for Probasin-CRE. Surgical castration was performed under anesthesia with isoflurane. Mice were monitored postoperatively for recovery from anesthesia and checked daily for 2 days postoperatively. Surgical skin clips were removed on postoperative day 5. Mice undergoing treatment were administered control vehicle or therapeutic doses of the appropriate agents. Any mouse suffering distress or greater than 15% weight loss during treatment was euthanized by CO2 asphyxiation. At the completion of study, mice were euthanized by CO2 asphyxiation and tissue was collected for histology, mRNA analysis, protein analysis, and single cell suspensions for flow cytometry. For allograft experiments, 2.5×10^6 TRAMP-C1 cells, 2.5×10^6 TRAMP-C1 IL23RKO, or 2×10^6 MyC-CaP cells were injected subcutaneously into the flank of male respectively C57BL/6 or FVB mice. When tumors were approximately 100 mm^3, mice were randomized to the treatment groups. Tumor growth was monitored daily by measuring the tumor size with caliper. The tumor volume was estimated by calculating R1*R2*R3*4/3π, where R1 and R2 are the longitudinal and lateral radii, and R3 is the thickness of tumor protruding from the surface of normal skin. Animals were sacrificed when the tumor reached approximately 600 mm^3.
(§3) αCXCR2 (AZD5069; AstraZeneca) was administered with daily intraperitoneal injections at a final concentration of 100 mg/kg on a Monday through Friday schedule. Control animals received vehicle. Enzalutamide (APExBio) was administered daily by oral gavage with a dose of 30 mg/kg/day on a Monday through Friday schedule. Rat anti-IL23 antibody (100 ng per mouse; G23-8; IgG1, kappa; eBioscience) or rat IgG1 isotype control (eBioscience) were administered weekly via intraperitoneal injection.
(§4) Tumors were disaggregated and digested in collagenase D and DNAse for 30 minutes at 37° C. to obtain single-cell suspension. For intracellular cytokine detection cells where stimulated for 5 hours with PMA/ionomycin. After neutralization of unspecific binding with αCD16/CD32 (clone 93), single-cell suspensions were stained with specific mAb (primary antibodies directly conjugated) to assess the phenotype. […] Data were analyzed using FlowJo software (TreeStar, Ashland, Oreg.).
as §1

In assay [3] the test system is TRAMP-C1 cells. Description: CXCR2 antagonist treatment of castrated TRAMP-C1 allograft mice. The class given is in vivo, mouse. How it is done: as §2, §3, §4, §1
Assay [4] concerns TRAMP-C1 cells. Description: In vitro culture of prostate cancer cells under full androgen deprivation (F.A.D.). The class given is cell-based, mouse. How it is done: Prostate cancer cell lines were starved in Charcoal Stripped FBS (CS-FBS) medium for 72 h and then cultured with RPMI 1640 containing 10% heat-inactivated FBS (normal medium) or kept in full androgen deprivation medium (RPMI 1640 containing 10% heat-inactivated Charcoal Stripped-FBS plus Enzalutamide 10 μM; F.A.D.). Then, the cells were stimulated with or without condition media obtained from activated BM-derived MDSCs, or recombinant IL23 (100 ng/ml; R&D System), with or without αRORγ (5 μM; SR2211; Calbiochem®). Then, the cells were analyzed for Crystal Violet assay or stained with Annexin V/7AAD or collected for RNA extraction.
RNA isolation (TRIzol, Qiagen) and retro-transcription with SuperScriptIII (Invitrogen, 11752-250) were performed according to the manufacturer's instructions. Quantitative PCR (qPCR) reactions (Bio-Rad) were performed using KAPA SYBR FAST qPCR green (KK4605; Applied Biosystems) and the specific primers reported below. Primer sequences were obtained from PrimerBank (http://pga.mgh.harvard.edu/primerbank/index.html) or BIORAD. Each expression value was normalized by HPRT or GADPH level as reference.

Assay [5] relates to castration resistant prostate tumors of Pten^pc−/− mice. Nature of the assay: Preclinical trial in castration-resistant Pten^pc−/− mice (αIL23, ENZA, ENZA+αIL23). To be noted: ENZA 30 mg/kg/day oral alone. The class given is in vivo, mouse. How it is done:
All mice were maintained under specific pathogen-free conditions in the IRB facility and experiments were performed according to state guidelines and approved by the local ethics committee. Male C57BL/6 or FVB mice 6-8 weeks of age were purchased from Jackson Laboratories (Envigo), and acclimated for at least a week before use. C57BL/6 IL-23p19KO (IL23ko) mice were kindly provided by Prof. Federica Sallusto (IRB, Bellinzona). Pten^pc−/− mice were generated and genotyped as previously described. Female Pten^loxP/loxP mice were crossed with male PB-Cre4 transgenic mice and genotyped for Cre using following primers: primer 1 (5′-[…]-3′) and primer 2 (5′-[…]-3′) for PTEN^loxP/loxP; primer 1 (5′ […] 3′) and primer 2 (5′CAGCCACCAGCTTGCATGA 3′) for Probasin-CRE. Surgical castration was performed under anesthesia with isoflurane. Mice were monitored postoperatively for recovery from anesthesia and checked daily for 2 days postoperatively. Surgical skin clips were removed on postoperative day 5. […] Tumor growth was monitored daily by measuring the tumor size with caliper. […]
For immunohistochemistry (IHC), tissues were fixed in 10% formalin (ThermoScientific, 5701) and embedded in paraffin in accordance with standard procedures. […] All the quantifications have been done using the public online software ImmunoRatio (153.1.200.58:8080/iimunoratio/). […]

Here are results for 3 molecules from US11168134B2, “Methods of treating androgen deprivation therapy resistant prostate cancer” (Fondazione per l'Istituto Oncologico di Ricerca (IOR), priority 2018, dated 2021).

Take `C[C@@H](Oc1cc(NS(=O)(=O)N2CCC2)nc(SCc2cccc(F)c2F)n1)[C@@H](O)CO` [AZD5069]: the “tumor infiltration of PMN-MDSCs” value is on record as “strongly reduced the tumor infiltration of PMN-MDSCs” in assay [1] (AZD5069 100 mg/kg i.p. daily Monday-Friday, flow cytometry (FIG. 6f)); “strongly reduced the tumor infiltration of PMN-MDSCs” in assay [2] (castrated FVB mice with s.c. MyC-CaP tumors, AZD5069 100 mg/kg i.p., flow cytometry (FIG. 7e)); “strongly reduced the tumor infiltration of PMN-MDSCs” in assay [3] (castrated C57BL/6 mice with s.c. TRAMP-C1 tumors, AZD5069 100 mg/kg i.p., flow cytometry (FIG. 7a)). Also, in assay [1] (judged by tumor volume and levels of AR target genes, untreated mice developed CRPCs four months after castration), the “progression to CRPC” value is “did not progress to CRPCs”. For the same molecule, the “emergence of CRPC” value in assay [2] (castrated MyC-CaP allograft mice) and in assay [3] (castrated TRAMP-C1 allograft mice) was “delayed the emergence of CRPC” in each case. Moreover, the tumor size entry in assay [2] (castrated MyC-CaP allograft mice (FIG. 7g)) and in assay [3] (castrated TRAMP-C1 allograft mice (FIG. 7c)) was “decreased tumor size” each time. Besides, the survival result was “longer survival” in assay [2] (castrated MyC-CaP allograft mice, Kaplan-Meier (FIG. 7h)) and “longer survival” in assay [3] (castrated TRAMP-C1 allograft mice, Kaplan-Meier (FIG. 7d)). Moreover, the “level of AR target genes in tumors” value in assay [2] (castrated MyC-CaP allograft mice, qRT-PCR (FIG. 7f)) is on record as “decreased”; in assay [3] (castrated TRAMP-C1 allograft mice, qRT-PCR (FIG. 7b)), “decreased”. For the same molecule, the “AR activity (AR target genes, qRT-PCR)” value in assay [4] (TRAMP-C1 cells in F.A.D., 24 h of treatment with CXCR2 antagonist (FIG. 6i)) is “did not directly affect”. In assay [4] (TRAMP-C1 cells in F.A.D., 72 h of treatment with CXCR2 antagonist (FIG. 6h)), the cell proliferation result is given as “did not directly affect”.

As to `CNC(=O)c1ccc(N2C(=S)N(c3ccc(C#N)c(C(F)(F)F)c3)C(=O)C2(C)C)cc1F` [ENZA, Enzalutamide], in assay [5], the “treatment effect (glands, tumor volume, proliferation)” value is recorded as “ineffective”.

B1: recombinant IL23: recombinant IL23 (100 ng/ml; R&D System) (protein, UniProt Q9NPF7 20-189; P29460 23-328, looked up)
Interleukin-23 subunit alpha: RAVPGGSSPAWTQCQQLSQKLCTLAWSAHPLVGHMDLREEGDEETTNDVPHIQCGDGCDPQGLRDNSQFCLQRIHQGLIFYEKLLGSDIFTGEPSLLPDSPVGQLHASLLGLSQLLQPEGHHWETQQIPSLSPSQPWQRLLLRFKILRSLQAFVAVAARVFAHGAATLSP
Interleukin-12 subunit beta: IWELKKDVYVVELDWYPDAPGEMVVLTCDTPEEDGITWTLDQSSEVLGSGKTLTIQVKEFGDAGQYTCHKGGEVLSHSLLLLHKKEDGIWSTDILKDQKEPKNKTFLRCEAKNYSGRFTCWWLTTISTDLTFSVKSSRGSSDPQGVTCGAATLSAERVRGDNKEYEYSVECQEDSACPAAEESLPIEVMVDAVHKLKYENYTSSFFIRDIIKPDPPKNLQLKPLKNSRQVEVSWEYPDTWSTPHSYFSLTFCVQVQGKSKREKKDRVFTDKTSATVICRKNASISVRAQDRYYSSSWSEWASVPCS
Regarding B1, the “cell survival (AnnexinV/7AAD)” value in assay [4] (TRAMP-C1 cells kept in F.A.D., recombinant IL23 100 ng/ml (FIG. 2f-g)) was “promoted”. Further, the “transcription of androgen receptor target genes” value in assay [4] (TRAMP-C1 cells kept in F.A.D., recombinant IL23 100 ng/ml, 24 h, qRT-PCR (FIG. 2h)) is on record as “increased transcription of androgen receptor target genes”. The cell proliferation entry in assay [4] (TRAMP-C1 cells kept in F.A.D., recombinant IL23 100 ng/ml, 72 h (FIG. 2e)) is “promoted proliferation”.
